Results: US20250230193A1, “CYCLIC COMPOUND HAVING SELECTIVE KRAS INHIBITORY EFFECT ON HRAS AND NRAS” (CHUGAI SEIYAKU KABUSHIKI KAISHA, priority 2022, published 2025)

Assays:
[1] = molecular target: GDP-bound NRAS wild-type protein (Homo sapiens, UniProt P01111); experiment: Binding to NRAS by surface plasmon resonance (SPR), Single Cycle Kinetics; settings: for NRAS/KRAS (ratio of KD value with respect to GDP-bound NRAS wild-type protein to KD value with respect to KRAS): class symbols; for NRAS/KRAS (ratio of KD value for NRAS to KD value for KRAS) / NRAS/KRAS (ratio of KD value with respect to NRAS to KD value with respect to KRAS): GDP-bound NRAS wild-type vs GDP-bound KRAS wild-type
Chain of GDP-bound NRAS wild-type protein (P01111 whole entry): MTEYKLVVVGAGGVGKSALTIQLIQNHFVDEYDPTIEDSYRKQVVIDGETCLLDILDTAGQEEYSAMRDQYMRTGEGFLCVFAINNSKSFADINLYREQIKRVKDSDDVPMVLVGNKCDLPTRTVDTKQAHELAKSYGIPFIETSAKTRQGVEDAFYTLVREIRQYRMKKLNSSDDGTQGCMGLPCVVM

[2] = molecular target: GDP-bound HRAS wild-type protein (Homo sapiens, UniProt P01112); experiment: Binding to HRAS by surface plasmon resonance (SPR), Single Cycle Kinetics; settings: for HRAS/KRAS (ratio of KD value with respect to GDP-bound HRAS wild-type protein to KD value with respect to KRAS): class symbols; for HRAS/KRAS (ratio of KD value for HRAS to KD value for KRAS) / HRAS/KRAS (ratio of KD value with respect to HRAS to KD value with respect to KRAS): GDP-bound HRAS wild-type vs GDP-bound KRAS wild-type
Chain of GDP-bound HRAS wild-type protein (P01112 whole entry): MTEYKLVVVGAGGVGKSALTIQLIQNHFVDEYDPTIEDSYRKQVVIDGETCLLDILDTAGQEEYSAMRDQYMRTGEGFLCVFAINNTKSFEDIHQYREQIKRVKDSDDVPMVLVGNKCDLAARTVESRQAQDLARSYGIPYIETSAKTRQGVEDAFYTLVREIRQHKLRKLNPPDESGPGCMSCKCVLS

CCCC[C@H]1C(=O)N[C@@H]([C@@H](C)CC)C(=O)N(C)CC(=O)N(C)[C@H]2C/C=C\CCN(C2=O)[C@@H](Cc2ccc(C(F)(F)F)cc2)C(=O)N(C)CC(=O)N[C@@H](CCc2cc(F)c(C(F)(F)F)c(F)c2)C(=O)N2C[C@H](OCC)C[C@H]2C(=O)NC2(CC(C)(C)C2)C(=O)N(C)[C@@H](C2CCCC2)C(=O)N(C)[C@H](C(=O)N(C)CC)CC(=O)N1C [PP2806]
NRAS/KRAS (ratio of KD value with respect to GDP-bound NRAS wild-type protein to KD value with respect to KRAS) ([1]; KD ratio NRAS/KRAS): A (a compound having 10 or more and less than 20 is denoted as A)
HRAS/KRAS (ratio of KD value with respect to GDP-bound HRAS wild-type protein to KD value with respect to KRAS) ([2]; KD ratio HRAS/KRAS): A (a compound having 10 or more and less than 20 is denoted as A)

CCCN(C)C(=O)[C@@H]1CC(=O)N(C)[C@@H](CCOC)C(=O)N[C@@H]([C@@H](C)CC)C(=O)N(C)CC(=O)N(C)[C@H]2C/C=C\CCN(C2=O)[C@@H](Cc2ccc(C(F)(F)F)cc2)C(=O)N(C)CC(=O)N[C@@H](CCc2ccc(C(F)(F)F)c(OC)c2)C(=O)N2C[C@@H](C)C[C@H]2C(=O)NC2(CC(C)(C)C2)C(=O)N(C)[C@@H](C2CCCC2)C(=O)N1C [PP2001]
NRAS/KRAS (ratio of KD value for NRAS to KD value for KRAS) ([1]; KD ratio, SPR): A (a compound having 10 or more and less than 20 is denoted as A)
HRAS/KRAS (ratio of KD value for HRAS to KD value for KRAS) ([2]; KD ratio, SPR): A (a compound having 10 or more and less than 20 is denoted as A)

CCCN(C)C(=O)[C@@H]1CC(=O)N(C)[C@@H](COC)C(=O)N[C@@H]([C@@H](C)CC)C(=O)N(C)CC(=O)N(C)[C@H]2C/C=C\CCN(C2=O)[C@@H](Cc2ccc(C(F)(F)F)cc2)C(=O)N(C)CC(=O)N[C@@H](CCc2cc(F)c(C(F)(F)F)c(F)c2)C(=O)N2C[C@H](OCC)C[C@H]2C(=O)NC2(CC(F)(F)C2)C(=O)N(C)[C@@H](C2CCCC2)C(=O)N1C [PP1743]
NRAS/KRAS (ratio of KD value for NRAS to KD value for KRAS) ([1]; KD ratio, SPR): AA (a compound having 20 or more is denoted as AA)
HRAS/KRAS (ratio of KD value for HRAS to KD value for KRAS) ([2]; KD ratio, SPR): A (a compound having 10 or more and less than 20 is denoted as A)

CCC[C@H]1C(=O)N[C@@H]([C@@H](C)CC)C(=O)N(CCC)CC(=O)N(C)[C@H]2C/C=C\CCN(C2=O)[C@@H](Cc2ccc(C)cc2)C(=O)N(C)CC(=O)N[C@@H](CCc2cc(F)c(C(F)(F)F)c(F)c2)C(=O)N2C[C@H](OCC)C[C@H]2C(=O)NC2(CC(C)(C)C2)C(=O)N(C)[C@@H](C2CCCC2)C(=O)N(C)[C@H](C(=O)N(C)C)CC(=O)N1C [PP2108]
NRAS/KRAS (ratio of KD value with respect to NRAS to KD value with respect to KRAS) ([1]; SPR): A (a compound having 10 or more and less than 20 is denoted as A)
HRAS/KRAS (ratio of KD value with respect to HRAS to KD value with respect to KRAS) ([2]; SPR): A (a compound having 10 or more and less than 20 is denoted as A)

CCC[C@H]1C(=O)N[C@@H]([C@@H](C)CC)C(=O)N(C)CC(=O)N(C)[C@H]2C/C=C\CCN(C2=O)[C@@H](Cc2ccc(C(F)(F)F)cc2)C(=O)N(C)CC(=O)N[C@@H](CCc2ccc(C(F)(F)F)c(OC)c2)C(=O)N2CCCC[C@H]2C(=O)NC2(CC(C)(C)C2)C(=O)N(C)[C@@H](C(CC)CC)C(=O)N(C)[C@H](C(=O)N(C)C)CC(=O)N1C [PP2934]
NRAS/KRAS (ratio of KD value with respect to GDP-bound NRAS wild-type protein to KD value with respect to KRAS) ([1]; KD ratio NRAS/KRAS): AA (a compound having 20 or more is denoted as AA)
HRAS/KRAS (ratio of KD value with respect to GDP-bound HRAS wild-type protein to KD value with respect to KRAS) ([2]; KD ratio HRAS/KRAS): A (a compound having 10 or more and less than 20 is denoted as A)

CCO[C@@H]1C[C@H]2C(=O)NC3(CCC3)C(=O)N(C)[C@@H](C3CCCC3)C(=O)N(C)[C@H](C(=O)N(C)C)CC(=O)N(C)[C@@H](CC(F)F)C(=O)N[C@@H]([C@@H](C)CC)C(=O)N(C)CC(=O)N(C)[C@H]3CCCCCN(C3=O)[C@@H](Cc3ccc(F)cc3)C(=O)N(C)CC(=O)N[C@@H](CCc3cc(F)c(C(F)(F)F)c(F)c3)C(=O)N2C1 [PP1191]
NRAS/KRAS (ratio of KD value with respect to NRAS to KD value with respect to KRAS) ([1]; KD ratio, SPR): A (a compound having 10 or more and less than 20 is denoted as A)
HRAS/KRAS (ratio of KD value with respect to HRAS to KD value with respect to KRAS) ([2]; KD ratio, SPR): B (a compound having 3 or more and less than 10 is denoted as B)

CC[C@H](C)[C@@H]1NC(=O)[C@H](CC(C)C)N(C)C(=O)C[C@@H](C(=O)N2CCOCC2)N(C)C(=O)[C@H](C2CCCC2)N(C)C(=O)C2(CCCC2)NC(=O)[C@@H]2CCCN2C(=O)[C@H](CCc2ccc(C(F)(F)F)c(Cl)c2)NC(=O)CN(C)C(=O)[C@H](Cc2ccc(C(F)(F)F)cc2)N2CCCC[C@@H](C2=O)N(C)C(=O)CN(C)C1=O [PP0318]
NRAS/KRAS (ratio of KD for GDP-bound NRAS wild-type to KD for KRAS) ([1]; KD ratio NRAS/KRAS, SPR): B (a compound having 3 or more and less than 10 is denoted as B)
HRAS/KRAS (ratio of KD for GDP-bound HRAS wild-type to KD for KRAS) ([2]; KD ratio HRAS/KRAS, SPR): B (a compound having 3 or more and less than 10 is denoted as B)

CCO[C@@H]1C[C@H]2C(=O)NC3(CCC3)C(=O)N(C)[C@@H](C(CC)CC)C(=O)N(C)[C@H](CC)CC(=O)N(C)[C@@H](CC3CC3)C(=O)N[C@@H]([C@@H](C)CC)C(=O)N(C)CC(=O)N(C)[C@H]3C/C=C\CCN(C3=O)[C@@H](Cc3ccc(C(F)(F)F)cc3)C(=O)N(C)CC(=O)N[C@@H](CCc3cc(F)c(C(F)(F)F)c(F)c3)C(=O)N2C1 [PP1630]
NRAS/KRAS (ratio of KD value for NRAS to KD value for KRAS) ([1]; KD ratio, SPR): A (a compound having 10 or more and less than 20 is denoted as A)
HRAS/KRAS (ratio of KD value for HRAS to KD value for KRAS) ([2]; KD ratio, SPR): A (a compound having 10 or more and less than 20 is denoted as A)
